Tests used:
[1] = esterase dependent hydrolysis: incubation in fresh rat plasma, LC-MS/MS determination of parent compound, MNAF and MNA; details: for release of intermediate compound MNAF / rate of hydrolysis (property depending on structure): group property, matrix not given; for hydrolysis of parent compound during plasma incubation: fresh rat plasma, 37°C, incubation 120 min
[2] = hydrolytic stability in solution: incubation in PBS buffer, LC-MS/MS determination of parent compound, MNAF and MNA; type: physicochemical; details: 37°C, incubation 120 min
Method: The invention also concerns the method of releasing N1-methylnicotinamide (MNA), which is characterized by the following steps: pyridine salts derivatives, as defined above, are incubated in a shaking water bath at 37°C for 120 minutes, then samples are taken 1, 5, 15, 30, 60, 90 and 120 minutes after the start of incubation, by taking 50 µL of a sample to which 500 µL of acetonitrile cooled to -20°C was added to interrupt the hydrolysis reaction, then samples were cooled for 20 minutes at 4°C for protein precipitation, and then centrifuged under the following conditions: 4°C, 15,000 x rpm, 15 min, and the supernatant was transferred to separate chromatographic tubes and 5 µL was applied to the chromatographic column. Preferably, when MNA release is studied in PBS buffer - testing hydrolytic stability in solution and/or in rat plasma - additionally testing plasma esterase-dependent hydrolysis.
For that purpose, the studied compounds were incubated: (1) in PBS buffer - testing hydrolytic stability in solution; (2) in rat plasma - testing additionally esterase dependent hydrolysis. Incubation was carried out in a shaking water bath at 37°C. The studied compounds were added to the prepared biological matrix and incubated for 120 min. Samples were collected 1, 5, 15, 30, 60, 90 and 120 min. after the beginning of incubation, by taking 50 µL of a sample to which 500 µL of acetonitrile cooled to -20°C was added to stop the hydrolysis reaction. The samples were cooled for 20 minutes at 4°C in order to precipitate proteins and then centrifuged under the following conditions: 4°C, 15,000 x rpm, 15 min. The supernatant was transferred to separate chromatographic tubes and 5 µL was injected onto chromatographic column.
The analytical system used for determination of MNA and MNAF concentrations consisted of the UltiMate 3000 liquid chromatograph (Dionex, Thermo Scientific) and the Quantum Ultra TSQ mass spectrometer (Thermo Scientific). For chromatographic separation the Aquasil C18 (4.6 x 150 mm, 5 µm, Thermo Scientific) analytical column was used with isocratic mobile phase, a mixture of 0.1% formic acid in acetonitrile and 5mM ammonium formate (80: 20, v/v)) elution ,at the flow rate of 0,8 mL/min. The detection was performed in the selected reaction monitoring (SRM) mode in positive ionization, monitoring the following ion transitions: m/z 137 → 94 (CE=19V) for MNA, m/z 167 → 137 (CE10) for MNAF, m/z 140 → 97 (CE=19V) for MNA-d3 used as internal standard. The parameters of the ion source were as follows: gas pressure 30 psi (sheath gas) and 10 psi (auxiliary gas), ion spray voltage 4500V, H-ESI ison sourse vaporizer temperature 300°C, capillary temperature 300°C, pressure in the collision chamber 1.5 mTorr (argon).

3-(Acetoxymethylcarbamoyl)-1-methylpyridinium iodide [C-2578]
release of intermediate compound MNAF / rate of hydrolysis (property depending on structure) [1]: quick release of an intermediate compound MNAF

3-(benzoyloxymethylcarbamoyl)-1-methylpyridinium iodide [C-2648]
release of intermediate compound MNAF / rate of hydrolysis (property depending on structure) [1]: quick release of an intermediate compound MNAF

3-(isobutanoyloxymethylcarbamoyl)-1-methylpyridinium iodide [C-2649]
release of intermediate compound MNAF / rate of hydrolysis (property depending on structure) [1]: quick release of an intermediate compound MNAF

3-(methoxymethylcarbamoyl)-1-methylpyridinium iodide [C-2823]
hydrolysis of parent compound during plasma incubation [1]: slow and slight hydrolysis
release of intermediate compound MNAF / rate of hydrolysis (property depending on structure) [1]: hydrolyse very slowly
stability in PBS buffer [2]: high stability
changes in concentrations of parent compound during incubation in PBS solution [2]: No changes in concentrations

3-({[(3,4,5-trimethoxybenzoyl)oxy]methyl}carbamoyl)-1 methylpyridinium iodide [C-2942]
release of intermediate compound MNAF / rate of hydrolysis (property depending on structure) [1]: quick release of an intermediate compound MNAF

3-[(2,2-dimethylpropionyl oxymethyl)carbamoyl]-1-methylpyridinium iodide [C-2647]
release of intermediate compound MNAF / rate of hydrolysis (property depending on structure) [1]: quick release of an intermediate compound MNAF

3-[(adamanthan-1-carbonyl oxymethyl)carbamoyl]-1-methylpyridinium iodide [C-2808]
hydrolysis of parent compound during plasma incubation [1]: slow and slight hydrolysis
release of intermediate compound MNAF / rate of hydrolysis (property depending on structure) [1]: hydrolyse very slowly
stability in PBS buffer [2]: high stability
changes in concentrations of parent compound during incubation in PBS solution [2]: No changes in concentrations

iodide [(1-methylpyridine-1-ium-3-carbonyl)amino] methyl-1-methylcyclohexanecarboxylate [C-2959]
release of intermediate compound MNAF / rate of hydrolysis (property depending on structure) [1]: quick release of an intermediate compound MNAF
